Patent US8119692B2 (priority 2007, dated 2012)

These molecules were tested against Lethal factor protease (Bacillus anthracis, UniProt P15917) (assay: biochemical). Settings: LF (FRET) Ki^app.
Sequence of Lethal factor protease (P15917 34-809 limits assumed): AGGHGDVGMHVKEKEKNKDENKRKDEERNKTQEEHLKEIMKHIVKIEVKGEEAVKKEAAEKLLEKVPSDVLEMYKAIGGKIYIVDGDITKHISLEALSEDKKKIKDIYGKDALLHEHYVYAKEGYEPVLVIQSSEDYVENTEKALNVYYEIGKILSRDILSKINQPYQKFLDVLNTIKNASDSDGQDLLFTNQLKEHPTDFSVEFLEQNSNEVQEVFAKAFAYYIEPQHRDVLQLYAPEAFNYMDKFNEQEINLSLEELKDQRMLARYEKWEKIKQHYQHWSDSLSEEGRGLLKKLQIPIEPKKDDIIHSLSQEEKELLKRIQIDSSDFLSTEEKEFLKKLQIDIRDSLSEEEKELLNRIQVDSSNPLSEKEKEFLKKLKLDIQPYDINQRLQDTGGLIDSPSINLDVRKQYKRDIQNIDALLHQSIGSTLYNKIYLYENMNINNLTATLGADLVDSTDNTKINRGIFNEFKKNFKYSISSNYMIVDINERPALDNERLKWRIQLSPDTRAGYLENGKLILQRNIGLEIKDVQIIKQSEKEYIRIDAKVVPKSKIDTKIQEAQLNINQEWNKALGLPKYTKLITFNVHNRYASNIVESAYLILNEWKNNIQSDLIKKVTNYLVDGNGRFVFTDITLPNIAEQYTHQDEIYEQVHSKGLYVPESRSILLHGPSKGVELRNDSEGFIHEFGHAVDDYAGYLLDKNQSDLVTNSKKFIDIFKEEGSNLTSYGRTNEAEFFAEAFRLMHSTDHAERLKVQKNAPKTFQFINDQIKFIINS

First: CO[C@H](C[C@H](CCN(Cc1ccccc1)C(C)C)C(=O)NO)c1ccc(F)cc1 [Compound 167784, (2S,4R)-2-(2-(benzyl(isopropyl)amino)ethyl)-4-(4-fluorophenyl)-N-hydroxy-4-methoxybutanamide]
Second: CO[C@H](C[C@@H](CCCc1ccccc1)C(=O)NO)c1ccc(F)cc1 [Compound 167395, (2R)-2-((2R)-2-(4-fluorophenyl)-2-methoxyethyl)-N-hydroxy-5-phenylpentanamide]
The Ki of the first is 5.6-fold lower: 14 µM for the first, 78.6 µM for the second.

Compared with `CO[C@H](C[C@H](CCCCNCCc1ccc(F)cc1)C(=O)NO)c1ccc(F)cc1` [Compound 168221], `CO[C@H](C[C@H](CCCCNCCCc1ccc(F)cc1)C(=O)NO)c1ccc(F)cc1` [Compound 168222, (S)-2-((R)-2-(4-fluorophenyl)-2-methoxyethyl)-6-(3-(4-fluorophenyl)propylamino)-N-hydroxyhexanamide] is 1.6-fold lower in Ki: 0.28 µM for the first, 0.17 µM for the second. The second binds more tightly here.

Going from `CO[C@H](C[C@H](CCN(C)Cc1cccc(-c2ccc(F)c(C)c2)c1)C(=O)NO)c1ccc(F)cc1` [Compound 168003, (2S,4R)-2-(2-(((4′-fluoro-3′-methylbiphenyl-3-yl)methyl)(methyl)amino)ethyl)-4-(4-fluorophenyl)-N-hydroxy-4-methoxybutanamide] to `CO[C@H](C[C@H](CCN(C)Cc1ccc(-c2ccc(F)c(C)c2)cc1)C(=O)NO)c1ccc(F)cc1` [Compound 168037, (2S,4R)-2-(2-(((4′-fluoro-3′-methylbiphenyl-4-yl)methyl)(methyl)amino)ethyl)-4-(4-fluorophenyl)-N-hydroxy-4-methoxybutanamide], the Ki falls from 2.3 µM to 0.68 µM (3.4-fold). The second binds more tightly here.

Compared with `CO[C@H](C[C@H](CCN(C)CCN(C)CCCc1ccccc1)C(=O)NO)c1ccc(F)cc1` [Compound 168082, (2S,4R)-4-(4-fluorophenyl)-N-hydroxy-4-methoxy-2-(2-(methyl(2-(methyl(3-phenylpropyl)amino)ethyl)amino)ethyl)butanamide], `CO[C@@H](C[C@H](CCCc1ccccc1)C(=O)NO)c1ccc(F)cc1` [Compound 167408] is higher in Ki: 0.82 µM for the first, greater than 300 µM for the second. The first binds more tightly here.

Compared with `CO[C@H](C[C@H](CCN1CCC[C@H](CO)C1)C(=O)NO)c1ccc(F)cc1` [Compound 168039, (2S,4R)-4-(4-fluorophenyl)-N-hydroxy-2-(2-((S)-3-(hydroxymethyl)piperidin-1-yl)ethyl)-4-methoxybutanamide], `CO[C@H](C[C@H](CCN1CCCC(C(=O)O)C1)C(=O)NO)c1ccc(F)cc1` (stereo partly drawn) [Compound 167924, 1-((3S,5R)-5-(4-fluorophenyl)-3-(hydroxycarbamoyl)-5-methoxypentyl)piperidine-3-carboxylic acid] is 16-fold higher in Ki: 0.58 µM for the first, 9 µM for the second.

Going from `COC(CCC(=O)NO)c1cccc(Cl)c1` (centres unmarked) [Compound 167461, 4-(3-chlorophenyl)-N-hydroxy-4-methoxybutanamide] to `COC(CCC(=O)NO)c1cccc(C)c1` (centres unmarked) [Compound 167491, N-hydroxy-4-methoxy-4-m-tolylbutanamide], the Ki rises from 87.4 µM to 176 µM (2-fold).

First: COC(CC(Cc1ccccc1)C(=O)NO)c1ccc(F)cc1 (centres unmarked) [Compound 167286, 2-Benzyl-4-(4-fluorophenyl)-N-hydroxy-4-methoxy-butyramide]
Second: CO[C@H](C[C@H](Cc1ccccc1)C(=O)NO)c1ccc(F)cc1 [Compound 167298]
The Ki of the first is 1.9-fold higher: 168 µM for the first, 89.5 µM for the second. The second binds more tightly here.

First: CO[C@H](C[C@H](CCCCNCc1cc2ccccc2s1)C(=O)NO)c1ccc(F)cc1 [Compound 168231, (S)-6-(benzo[b]thiophen-2-ylmethylamino)-2-((R)-2-(4-fluorophenyl)-2-methoxyethyl)-N-hydroxyhexanamide]
Second: CO[C@H](C[C@H](CCCc1ccccc1)C(=O)NO)c1ccc(F)cc1 [Compound 167337, (2S)-2-((2R)-2-(4-fluorophenyl)-2-methoxyethyl)-N-hydroxy-5-phenylpentanamide]
The Ki of the first is 24-fold lower: 0.32 µM for the first, 7.8 µM for the second. The first binds more tightly here.

Going from `CO[C@H](C[C@H](CCN1CCC(F)(F)CC1)C(=O)NO)c1ccc(F)cc1` [Compound 167884, (2S,4R)-2-(2-(4,4-difluoropiperidin-1-yl)ethyl)-4-(4-fluorophenyl)-N-hydroxy-4-methoxybutanamide] to `CO[C@H](C[C@H](CCN1CCNCC1)C(=O)NO)c1ccc(F)cc1` [Compound 167955, (2S,4R)-4-(4-fluorophenyl)-N-hydroxy-4-methoxy-2-(2-(piperazin-1-yl)ethyl)butanamide], the Ki falls from 2.2 µM to 0.83 µM (2.7-fold).

Going from `CO[C@H](C[C@H](C/C=C/c1ccccc1)C(=O)NO)c1ccc(F)cc1` [Compound 167354] to `CO[C@H](C[C@H](C/C=C/C(c1ccccc1)c1ccccc1)C(=O)NO)c1ccc(F)cc1` [Compound 167371, (2S,4E)-2-((2R)-2-(4-fluorophenyl)-2-methoxyethyl)-N-hydroxy-6,6-diphenylhex-4-enamide], the Ki rises from 9.3 µM to 14 µM (1.5-fold). The first binds more tightly here.

Compared with `CO[C@H](C[C@H](CCN(C)c1ccc(Br)cc1)C(=O)NO)c1ccc(F)cc1` [Compound 168013, (2S,4R)-2-(2-((4-bromophenyl)(methyl)amino)ethyl)-4-(4-fluorophenyl)-N-hydroxy-4-methoxybutanamide], `CO[C@H](C[C@H](CCN(C)c1ccc(-c2ccc(F)c(C)c2)cc1)C(=O)NO)c1ccc(F)cc1` [Compound 168038, (2S,4R)-2-(2-((4′-fluoro-3′-methylbiphenyl-4-yl)(methyl)amino)ethyl)-4-(4-fluorophenyl)-N-hydroxy-4-methoxybutanamide] is 2-fold lower in Ki: 1.8 µM for the first, 0.91 µM for the second.

Going from `CO[C@H](C[C@H](CCN1CCN(CCCc2ccccc2)CC1)C(=O)NO)c1ccc(F)cc1` [Compound 167959, (2S,4R)-4-(4-fluorophenyl)-N-hydroxy-4-methoxy-2-(2-(4-(3-phenylpropyl)piperazin-1-yl)ethyl)butanamide] to `CO[C@H](C[C@H](CCN1CCOCC1)C(=O)NO)c1ccc(F)cc1` [Compound 167829, (2S,4R)-4-(4-fluorophenyl)-N-hydroxy-4-methoxy-2-(2-morpholinoethyl)butanamide], the Ki rises from 1 µM to 5.7 µM (5.7-fold). The first binds more tightly here.

Going from `CO[C@H](C[C@H](CCN1CCN(C(=O)OC(C)(C)C)CC1)C(=O)NO)c1ccc(F)cc1` [Compound 167944, tert-butyl 4-((3S,5R)-5-(4-fluorophenyl)-3-(hydroxycarbamoyl)-5-methoxypentyl)piperazine-1-carboxylate] to `CO[C@H](C[C@H](CCN1CCCCCCC1)C(=O)NO)c1ccc(F)cc1` [Compound 167912, (2S,4R)-2-(2-(azocan-1-yl)ethyl)-4-(4-fluorophenyl)-N-hydroxy-4-methoxybutanamide], the Ki rises from 2.5 µM to 284 µM (110-fold). The first binds more tightly here.

Compared with `CCCC[C@@H](C[C@H](OC)c1ccc(F)cc1)C(=O)NO` [Compound 167390, (25)-2-((2S)-2-(4-fluorophenyl)-2-methoxyethyl)-N-hydroxyhexanamide], `CCCC[C@H](C[C@@H](OC)c1ccc(F)cc1)C(=O)NO` [Compound 167353, (2R)-2-((2R)-2-(4-fluorophenyl)-2-methoxyethyl)-N-hydroxyhexanamide] is 39-fold lower in Ki: 224 µM for the first, 5.8 µM for the second. The second binds more tightly here.

Compared with `O=C(CC[C@@H](O)c1ccc(F)cc1)NO` [Compound 167206, (R)-4-(4-fluorophenyl)-N,4-dihydroxybutanamide], `CCOC(CCC(=O)NO)c1ccc(F)cc1` (racemic) [Compound 167173, 4-ethoxy-4-(4-fluorophenyl)-N-hydroxybutanamide] is 2.6-fold higher in Ki: 66.1 µM for the first, 171 µM for the second.

Going from `CO[C@H](C[C@H](CCN1CCC[C@H](CN2CCCCC2)C1)C(=O)NO)c1ccc(F)cc1` [Compound 168044, (2S,4R)-4-(4-fluorophenyl)-N-hydroxy-4-methoxy-2-(2-((R)-3-(piperidin-1-ylmethyl)piperidin-1-yl)ethyl)butanamide] to `CO[C@H](C[C@H](CCCCNCC1CCCCC1)C(=O)NO)c1ccc(F)cc1` [Compound 168227, (S)-6-(cyclohexylmethylamino)-2-((R)-2-(4-fluorophenyl)-2-methoxyethyl)-N-hydroxyhexanamide], the Ki falls from 1.92 µM to 0.69 µM (2.8-fold). The second binds more tightly here.

`COC(CCC(=O)NO)c1ccc(F)c(C)c1` (centres unmarked) [Compound 167232, 4-(4-fluoro-3-methylphenyl)-N-hydroxy-4-methoxybutanamide] and `CO[C@H](CCC(=O)NO)c1ccc(F)c(C)c1` [Compound 167223, (R)-4-(4-fluoro-3-methylphenyl)-N-hydroxy-4-methoxybutanamide] are within 1.5-fold of each other in Ki: 8.9 µM for the first, 11.9 µM for the second.

`CO[C@H](C[C@H](CCN(C)C)C(=O)NO)c1ccc(F)cc1` [Compound 167954, (2S,4R)-2-(2-(dimethylamino)ethyl)-4-(4-fluorophenyl)-N-hydroxy-4-methoxybutanamide] and `CCCCN(C)CC[C@@H](C[C@@H](OC)c1ccc(F)cc1)C(=O)NO` [Compound 167828, (2S,4R)-2-(2-(butyl(methyl)amino)ethyl)-4-(4-fluorophenyl)-N-hydroxy-4-methoxybutanamide] are within 1.5-fold of each other in Ki: 0.97 µM for the first, 1.1 µM for the second.

Compared with `CO[C@H](C[C@H](CCCCNCc1cccc(-c2ccc(F)cc2)c1)C(=O)NO)c1ccc(F)cc1` [Compound 168230, (S)-6-((4′-fluorobiphenyl-3-yl)methylamino)-2-((R)-2-(4-fluorophenyl)-2-methoxyethyl)-N-hydroxyhexanamide], `CO[C@H](C[C@H](CCCCNc1ccc(F)cc1)C(=O)NO)c1ccc(F)cc1` [Compound 168229] is 6.2-fold higher in Ki: 0.45 µM for the first, 2.8 µM for the second. The first binds more tightly here.

Compared with `COC(CCC(=O)NO)c1ccccc1F` (centres unmarked) [Compound 167564, 4-(2-fluorophenyl)-N-hydroxy-4-methoxybutanamide], `COC(CCC(=O)NO)c1ccccc1C` (centres unmarked) [Compound 167540, N-hydroxy-4-methoxy-4-o-tolylbutanamide] is 2.9-fold higher in Ki: 52.4 µM for the first, 152 µM for the second.

`COC(CCC(=O)NO)c1ccc(Cl)cc1` (centres unmarked) [Compound 167460, 4-(4-chlorophenyl)-N-hydroxy-4-methoxybutanamide] and `COC(CCC(=O)NO)c1ccc(C)c(F)c1` (centres unmarked) [Compound 167463, 4-(3-fluoro-4-methylphenyl)-N-hydroxy-4-methoxybutanamide] are within 1.5-fold of each other in Ki: 52.3 µM for the first, 65.6 µM for the second.

`O=C(CCC(OCc1ccccc1)c1ccc(F)cc1)NO` (racemic) [Compound 167151, 4-(benzyloxy)-4-(4-fluorophenyl)-N-hydroxybutanamide] and `COC(CCC(=O)NO)c1ccc(C)cc1C` (centres unmarked) [Compound 167541, 4-(2,4-dimethylphenyl)-N-hydroxy-4-methoxybutanamide] are within 1.5-fold of each other in Ki: 130 µM for the first, 134 µM for the second.
